Experimental data reported in ChEMBL document CHEMBL1136189, “Thiourea inhibitors of herpes viruses. Part 1: bis-(aryl)thiourea inhibitors of CMV” (Bioorg Med Chem Lett, 2003).
Converted amounts (≈) assume the structure as drawn.

Tests used:
Human betaherpesvirus 5 = experiment: Inhibitory concentration against human cytomegalovirus (CMV) in cultured human foreskin fibroblast (HFF) cells; format: functional, organism-based; details: Human betaherpesvirus 5, HFF
Human alphaherpesvirus 2 = experiment: Inhibitory concentration against Herpes simplex virus (HSV); format: functional, organism-based
Human alphaherpesvirus 3 = experiment: Inhibitory concentration against Varicella zoster virus (VZV); format: functional, organism-based
[1] = MTS cellular toxicity was determined; format: functional

| SMILES | IC50 (Human alphaherpesvirus 2) [µg/mL] | IC50 (Human alphaherpesvirus 3) [µg/mL] | IC50 (Human betaherpesvirus 5) [µg/mL] | Activity [1] [µg/mL] |
| --- | --- | --- | --- | --- |
| COc1cc(OC)c(N/C(S)=N/c2ccc(NC(=O)c3ccco3)cc2C)cc1Cl | > 10 | > 10 | 0.6 (≈ 1.35 µM) | – |
| COc1cc(OC)c(N/C(S)=N/c2cc(OC)c(NC(=O)c3ccco3)cc2OC)cc1Cl | > 10 | 4 (≈ 8.13 µM) | > 10 | – |
| COc1cc(OC)c(N/C(S)=N/c2ccc(NC(C)=O)cc2)cc1Cl | 3 (≈ 7.9 µM) | > 10 | 45 (≈ 118 µM) | >10 |
| COc1cc(OC)c(N/C(S)=N/c2ccc(NC(=O)c3ccccc3)cc2)cc1Cl | 0.3 (≈ 0.679 µM) | > 10 | 4 (≈ 9.05 µM) | >10 |
| COc1cc(OC)c(N/C(S)=N/c2ccc(NC(=O)c3ccco3)c(C)c2)cc1Cl | > 10 | > 10 | > 10 | >10 |
| O=C(Nc1ccc(NC(=S)Nc2ccccc2)cc1)c1ccco1 | > 10 | > 10 | 0.3 (≈ 0.889 µM) | – |
| COc1cc(OC)c(N/C(S)=N/c2ccc(NC(=O)c3ccco3)cc2C(F)(F)F)cc1Cl | 2.5 (≈ 5 µM) | > 10 | 2 (≈ 4 µM) | >10 |
| COc1cc(OC)c(N/C(S)=N/c2ccc(NC(=O)c3ccco3)cc2C#N)cc1Cl | > 10 | > 10 | > 10 | >10 |
| COc1cc(OC)c(N/C(S)=N/c2ccc(NC(=O)c3ccco3)cc2)cc1Cl | > 10 | > 10 | 0.2 (≈ 0.463 µM) | >10 |
| CCC(=O)Nc1ccc(N/C(S)=N/c2cc(Cl)c(OC)cc2OC)cc1 | 3 (≈ 7.62 µM) | > 10 | – | >10 |
| Cc1cccc(N/C(S)=N/c2ccc(NC(=O)c3ccco3)cc2)c1 | > 10 | > 10 | 0.06 (≈ 0.171 µM) | – |
| COc1cc(OC)c(N/C(S)=N/c2ccc(NC(=O)c3ccco3)c(OC)c2)cc1Cl | 8 (≈ 17.3 µM) | > 10 | > 10 | – |

Further lines, with some results ahead:

| IC50 (Human alphaherpesvirus 2) [µg/mL] | IC50 (Human alphaherpesvirus 3) [µg/mL] | SMILES | IC50 (Human betaherpesvirus 5) [µg/mL] | Activity [1] [µg/mL] |
| --- | --- | --- | --- | --- |
| > 10 | > 10 | Cc1ccc(N/C(S)=N/c2ccc(NC(=O)c3ccco3)cc2)cc1Cl | 0.09 (≈ 0.233 µM) | – |
| > 10 | > 10 | O=C(Nc1ccc(/N=C(\S)Nc2ccc(F)c(Cl)c2)cc1)c1ccco1 | 0.06 (≈ 0.154 µM) | – |
| > 10 | 7 (≈ 14.8 µM) | O=C(Nc1ccc(/N=C(\S)Nc2cc(C(F)(F)F)cc(C(F)(F)F)c2)cc1)c1ccco1 | 0.04 (≈ 0.0845 µM) | – |
| > 10 | > 10 | O=C(Nc1ccc(/N=C(\S)Nc2ccc(C(F)(F)F)c(Cl)c2)cc1)c1cocn1 | 0.02 (≈ 0.0454 µM) | – |
| > 10 | > 10 | O=C(Nc1ccc(/N=C(\S)Nc2cc(C(F)(F)F)cc(C(F)(F)F)c2)cc1)c1csnn1 | 0.02 (≈ 0.0407 µM) | – |
| > 10 | > 10 | O=C(Nc1ccc(/N=C(\S)Nc2ccc(Cl)c(C(F)(F)F)c2)cc1)c1ccco1 | 0.03 (≈ 0.0682 µM) | – |
| > 10 | > 10 | O=C(Nc1ccc(/N=C(\S)Nc2cccc(C(F)(F)F)c2)cc1)c1ccco1 | 0.06 (≈ 0.148 µM) | – |
| > 10 | > 10 | O=C(Nc1ccc(/N=C(\S)Nc2cc(C(F)(F)F)cc(C(F)(F)F)c2)cc1)c1cocn1 | 0.03 (≈ 0.0632 µM) | – |
| > 10 | > 10 | O=C(Nc1ccc(/N=C(\S)Nc2ccc(C(F)(F)F)c(Cl)c2)cc1)c1ccccn1 | > 10 | – |
| > 10 | > 10 | O=C(Nc1ccc(/N=C(\S)Nc2cc(C(F)(F)F)cc(C(F)(F)F)c2)cc1)c1cscn1 | 0.008 (≈ 0.0163 µM) | – |
| > 10 | > 10 | O=C(Nc1ccc(/N=C(\S)Nc2ccc(C(F)(F)F)c(Cl)c2)cc1)c1cscn1 | 0.006 (≈ 0.0131 µM) | – |
